Experimental data as given in PMC10122656, “Siglec-6 mediates the uptake of extracellular vesicles through a noncanonical glycolipid binding pocket” (Nature Communications, 2023).
Where “and” joins values, the source holds several entries; their conditions need not be identical. Identical values can stand only once.

Legend:
Siglec-6-Fc WT = target: T1, Siglec-6-Fc WT (Homo sapiens, UniProt O43699); experiment: Ganglioside ELISA; assay type: binding; conditions: for ganglioside ELISA signal, Siglec-6 WT: Figure 2c, replicates; for ELISA recognition of adsorbed ganglioside by Siglec-6 (in words): ganglioside adsorbed to microplate, outside a bilayer
T1 construct: the Siglecs as Fc chimeras; made in house; host or cells: WT CHO cells
Procedure: (§1) Siglec-Fc constructs designed by Rodrigues et al.[30] were used in this work. Siglec-Fc constructs were expressed using WT CHO cells in cell culture media as described above with 1% HEPES. Cells incubated as described above for one-week post confluency. The supernatant was harvested and stored at 4 °C.
(§2) The purification was heavily inspired by Rodrigues et al.[30]. The purification of the Siglec-Fcs from supernatant began with Ni^2+ affinity chromatography using an AKTA FPLC equipped with a HisTrap Excel column (GE). The column was equilibrated with fifteen column volumes (CVs) of equilibrium buffer (500 mM NaCl, 20 mM NaPO4H2, pH 7.4). The Siglec-Fc containing supernatant was then loaded in its entirety onto the column. The column was then washed with fifteen CVs of wash buffer (500 mM NaCl, 30 mM imidazole, 20 mM NaPO4H2, pH 7.4). The Siglec-Fc was then eluted in 20 in 1 mL fractions with twenty CVs of elution buffer (500 mM NaCl, 500 mM imidazole, 20 mM NaPO4H2, pH 7.4). Fractions containing Siglec-Fc were compiled and then prepared for the next stage of purification by diluting the fractions 1:4 with buffer W (100 mM Tris–HCl, 150 mM NaCl, 1 mM EDTA, pH 8.0). A Strep-Tactin column (IBA life sciences) was washed with fifteen CVs of buffer W. The Siglec-Fc-buffer W solution was then loaded in its entirety onto the column. The bound Siglec-Fc was then washed with fifteen CVs of buffer W. Siglec-Fc was eluted from the column with 15 column volumes of buffer E (100 mM Tris–HCl, 150 mM NaCl, 1 mM EDTA, 10 mM d-Desthiobiotin, pH 8.0). Fractions containing Siglec-Fc were pooled and dialyzed against PBS to remove any d-Desthiobiotin. After dialysis, Siglec-Fcs were concentrated using an ultra-centrifugal device (30 kDa MWCO) and aliquoted into 5 µg aliquots, and frozen. The Siglec-Fcs were then lyophilized overnight, and the lyophilized Siglec-Fcs were stored at −20 °C.
(§3) Our ELISA approach was carried out similarly to previous work by Rapoport[12] and Yamakawa[44]. Ganglioside ethanol solutions (10 µM) were prepared and then transferred in 50 µL increments to a 96-well microplate. The ethanol was removed by drying the plates overnight at room temperature. The plates were then washed with PBS, dried, and then blocked with 5% (m/V) BSA PBS for 1 h. The plates were then washed with PBS and then 2 µg/mL Siglec-Fc precomplexed to Strep-Tactin (2 Siglec-Fc:1 Strep-Tactin monomer) horse radish peroxidase was added to the microplate. The complex was incubated with the plate at room temperature for 2 h. The unbound complexes were then removed by washing in PBS and the plate was developed with Sera care TMB solution. The amount of binding was then quantified by using the background (microplate well with no ligand) subtracted absorbance at 450 nm using a Molecular Devices SpectraMAX ® iD5.

WT Siglec-1 CHO cells = target: T2, WT Siglec-1 CHO cells (Homo sapiens, UniProt Q9BZZ2); experiment: Cell assay (liposome/EV binding, flow cytometry); assay type: cell-based; design: GM1 liposome binding to Siglec-1 CHO cells, flow cytometry (Fig. 1b) / Binding of liposomes with increasing ganglioside content against Siglec-1 CHO cells (Fig. 1c) / Liposome binding to Siglec-1-expressing CHO cells in the cell assay (Fig. 1f): unit not given here; conditions: for Binding of liposomes with increasing ganglioside content against Siglec-1 CHO cells (Fig. 1c) / log10(MFI AF647) of GLL relative to log10(MFI AF647) of the same GLL against UT CHO cells (Fig. 2a) / Liposome binding to Siglec-1-expressing CHO cells in the cell assay (Fig. 1f): replicates; for log10(MFI AF647) of GLL relative to log10(MFI AF647) of the same GLL against UT CHO cells (Fig. 2a): Sig-1 WT, 3 mol% ganglioside liposomes; for ganglioside content threshold above which GLL binding to Siglec-1 CHO cells decreased: ganglioside titrated in GLLs; for GM1 liposome binding to Siglec-1 CHO cells, flow cytometry (Fig. 1b): 3 mol% GM1 liposomes, technical replicates
T2 construct: expressed in transfected cells
Procedure: (§4) Stock lipids (DSPC, Cholesterol, PEG45–DSPE) solutions were prepared by solvating the lipids in chloroform. An appropriate volume of each lipid solution was transferred to a glass test tube to reach the desired mol% of the component. The chloroform was then removed under N2 gas to yield a lipid thin film. Once dry, 100 µL of DMSO was added to the lipid-containing test tube and then the functional lipids (ganglioside, AF647–PEG45–DSPE, Siglec ligand–PEG45–DSPE, pHrodo–PEG45–DSPE, NGL) was added from their respect DMSO stock solution. The lipid mixture was then stored at −80 °C until completely frozen at which point excess DMSO was removed via lyophilization. Dry lipids were then stored at −80 °C until they were extruded. Lipid suppliers can be found in Supplementary Table 4.
(§5) Dry lipids were then hydrated in 1 mL of PBS. The lipids were then sonicated in a bath sonicator in a cycle of 1 min on, 5 min off for a total of five cycles. Liposomes were then extruded using an Avanti mini extruder first using an 800 nm filter and then a 100 nm filter yielding liposomes that were 130 ± 35 nm (Supplementary Table 5) measured using a Malvern Panalytical Zetasizer Nano S. Liposomes were stored at 4 °C.
(§6) 200,000 cells/well were plated into a 96-well U-bottom microplate and centrifuged at 300 × g for 5 min. The cells were then resuspended in 50 µL of 50 µM liposome/50 µg/mL (protein concentration) of EV solution in DMEM F12 5% FBS and incubated at 37 °C for 30 min. Excess liposomes were then removed via centrifuged at 300 × g for 5 min followed by washing the cells with FACS solution. The cells were then resuspended in (1:250 V/V) anti-Siglec-flow buffer (1% V/V FBS, 500 µM, EDTA Hank’s Balanced Salt Solution pH 7.4), solution and left to rest on ice for 30 min. The cells were then centrifuged again at 300 × g for 5 min and the cells were resuspended in FACS buffer solution and were then ready for analysis by flow cytometry. Information regarding antibody clone, catalog number supplier, label isotype, and dilution can be found in Supplementary Table 6. The Siglec-positive cells were gated on for liposome-binding analysis (Supplementary Fig. 1b).
(§7) Flow cytometry measurements were collected on a 5-laser Fortessa X-20 (BD Bioscience). All the resulting data were analyzed using FlowJo (10.5.3) software (BD Biosciences).

Siglec-1-Fc WT = Siglec-1-Fc WT (Homo sapiens, UniProt Q9BZZ2); experiment: Ganglioside ELISA; assay type: binding; conditions: Figure 2c, replicates
Procedure: as §1, §2, §3

R122A Siglec-6-Fc = target: T3, R122A Siglec-6-Fc (Homo sapiens, UniProt O43699, R122A); experiment: Ganglioside ELISA; assay type: binding; conditions: Figure 2c, replicates
T3 construct: the Siglecs as Fc chimeras; made in house; host or cells: WT CHO cells
Procedure: as §1, §2, §3

Siglec-7-Fc WT = target: T4, Siglec-7-Fc WT (Homo sapiens, UniProt Q9Y286); experiment: Ganglioside ELISA; assay type: binding; conditions: Figure 2c, replicates
T4 construct: the Siglecs as Fc chimeras; made in house; host or cells: WT CHO cells
Procedure: as §1, §2, §3

Siglec-7-Fc R124A = target: T5, Siglec-7-Fc R124A (Homo sapiens, UniProt Q9Y286, R124A); experiment: Ganglioside ELISA; assay type: binding; conditions: Figure 2c, replicates
T5 construct: the Siglecs as Fc chimeras; made in house; host or cells: WT CHO cells
Procedure: as §1, §2, §3

Siglec-9 R120A CHO cells = target: T6, Siglec-9 R120A CHO cells (Homo sapiens, UniProt Q9Y336, R120A); experiment: Cell assay (liposome/EV binding, flow cytometry); assay type: cell-based; conditions: Sig-9 R120A†; † after treatment of cells with neuraminidase; 3 mol% ganglioside liposomes; replicates
T6 construct: expressed in transfected cells
Procedure: as §4, §5, §6, §7
Cells were harvested and resuspended in complete media with either Neuraminidase A or S. The cells were then placed in a 37 °C shaking incubator for 1 h. The cells were then washed with complete media and then the liposome binding assay was performed as described above.

T1 sequence (O43699 27-347 limits assumed): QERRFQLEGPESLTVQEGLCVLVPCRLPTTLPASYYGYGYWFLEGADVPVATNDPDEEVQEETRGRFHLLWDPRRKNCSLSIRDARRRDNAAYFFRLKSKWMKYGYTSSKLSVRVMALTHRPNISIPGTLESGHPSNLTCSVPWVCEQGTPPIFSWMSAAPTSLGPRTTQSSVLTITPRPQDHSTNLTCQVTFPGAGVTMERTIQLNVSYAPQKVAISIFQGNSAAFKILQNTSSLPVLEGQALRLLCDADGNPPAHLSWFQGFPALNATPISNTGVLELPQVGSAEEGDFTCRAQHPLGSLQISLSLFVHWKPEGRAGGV
T2 sequence (Q9BZZ2 20-1709): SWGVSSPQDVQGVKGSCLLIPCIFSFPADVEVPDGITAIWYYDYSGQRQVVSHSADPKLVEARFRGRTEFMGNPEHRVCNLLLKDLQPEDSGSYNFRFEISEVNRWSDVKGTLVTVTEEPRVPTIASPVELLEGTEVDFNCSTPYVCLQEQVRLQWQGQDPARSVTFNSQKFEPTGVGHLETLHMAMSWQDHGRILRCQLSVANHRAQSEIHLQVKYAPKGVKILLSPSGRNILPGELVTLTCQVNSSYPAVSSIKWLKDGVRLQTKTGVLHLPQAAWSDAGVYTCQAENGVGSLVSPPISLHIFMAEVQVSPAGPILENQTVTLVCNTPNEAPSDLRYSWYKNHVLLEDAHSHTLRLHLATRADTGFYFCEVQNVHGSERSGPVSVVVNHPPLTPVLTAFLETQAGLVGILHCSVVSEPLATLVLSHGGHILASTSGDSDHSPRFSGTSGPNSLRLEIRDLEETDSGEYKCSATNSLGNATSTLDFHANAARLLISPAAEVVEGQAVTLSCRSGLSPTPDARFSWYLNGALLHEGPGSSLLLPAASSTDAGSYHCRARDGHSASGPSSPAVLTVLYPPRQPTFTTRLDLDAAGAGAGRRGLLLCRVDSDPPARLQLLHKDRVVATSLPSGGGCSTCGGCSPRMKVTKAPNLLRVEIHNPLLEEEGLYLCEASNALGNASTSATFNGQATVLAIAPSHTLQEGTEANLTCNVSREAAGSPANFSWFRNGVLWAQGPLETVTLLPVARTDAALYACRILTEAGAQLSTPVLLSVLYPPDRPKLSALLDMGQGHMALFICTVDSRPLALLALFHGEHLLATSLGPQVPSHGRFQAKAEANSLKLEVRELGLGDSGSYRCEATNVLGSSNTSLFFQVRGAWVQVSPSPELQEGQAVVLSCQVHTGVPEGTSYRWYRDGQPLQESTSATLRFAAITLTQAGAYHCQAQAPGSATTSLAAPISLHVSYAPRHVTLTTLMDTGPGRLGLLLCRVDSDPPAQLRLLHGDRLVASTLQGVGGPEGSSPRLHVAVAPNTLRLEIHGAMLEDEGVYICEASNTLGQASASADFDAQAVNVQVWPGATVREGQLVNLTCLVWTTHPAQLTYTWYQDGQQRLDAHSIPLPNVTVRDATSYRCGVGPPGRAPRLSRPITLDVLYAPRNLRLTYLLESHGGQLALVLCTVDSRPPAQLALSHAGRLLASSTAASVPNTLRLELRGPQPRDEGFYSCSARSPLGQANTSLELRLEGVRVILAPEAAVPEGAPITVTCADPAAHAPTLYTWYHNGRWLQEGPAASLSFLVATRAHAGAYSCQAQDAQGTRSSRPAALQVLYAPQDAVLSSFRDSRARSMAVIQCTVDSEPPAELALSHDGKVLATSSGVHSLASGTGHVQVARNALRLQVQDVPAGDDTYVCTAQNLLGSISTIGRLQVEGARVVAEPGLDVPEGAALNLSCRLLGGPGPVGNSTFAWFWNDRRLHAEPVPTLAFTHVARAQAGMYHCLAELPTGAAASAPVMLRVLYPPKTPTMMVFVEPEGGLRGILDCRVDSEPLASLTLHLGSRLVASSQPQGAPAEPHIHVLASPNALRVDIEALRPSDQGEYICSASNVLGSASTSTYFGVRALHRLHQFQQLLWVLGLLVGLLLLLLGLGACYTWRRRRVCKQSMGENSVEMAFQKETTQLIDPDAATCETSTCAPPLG
Chain of Siglec-1-Fc WT (Q9BZZ2 20-136 limits assumed): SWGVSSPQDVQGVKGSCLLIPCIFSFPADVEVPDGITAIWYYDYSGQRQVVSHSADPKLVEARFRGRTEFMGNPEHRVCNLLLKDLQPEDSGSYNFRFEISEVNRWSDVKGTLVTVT
T3 sequence (O43699 27-347 R122A limits assumed): as the sequence (O43699 27-347 limits assumed) above, with R96A counted along it
T4 sequence (Q9Y286 19-353 limits assumed): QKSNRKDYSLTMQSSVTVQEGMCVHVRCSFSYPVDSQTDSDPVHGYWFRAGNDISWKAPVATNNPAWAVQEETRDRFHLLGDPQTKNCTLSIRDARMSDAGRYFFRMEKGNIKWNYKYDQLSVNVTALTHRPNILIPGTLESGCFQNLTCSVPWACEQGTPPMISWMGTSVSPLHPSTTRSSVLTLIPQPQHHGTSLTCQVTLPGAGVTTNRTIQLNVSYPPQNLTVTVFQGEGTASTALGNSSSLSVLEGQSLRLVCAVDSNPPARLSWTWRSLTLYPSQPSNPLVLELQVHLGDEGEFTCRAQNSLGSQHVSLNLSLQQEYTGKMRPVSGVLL
T5 sequence (Q9Y286 19-353 R124A limits assumed): as the sequence (Q9Y286 19-353 limits assumed) above, with R106A counted along it
T6 sequence (Q9Y336 18-463 R120A): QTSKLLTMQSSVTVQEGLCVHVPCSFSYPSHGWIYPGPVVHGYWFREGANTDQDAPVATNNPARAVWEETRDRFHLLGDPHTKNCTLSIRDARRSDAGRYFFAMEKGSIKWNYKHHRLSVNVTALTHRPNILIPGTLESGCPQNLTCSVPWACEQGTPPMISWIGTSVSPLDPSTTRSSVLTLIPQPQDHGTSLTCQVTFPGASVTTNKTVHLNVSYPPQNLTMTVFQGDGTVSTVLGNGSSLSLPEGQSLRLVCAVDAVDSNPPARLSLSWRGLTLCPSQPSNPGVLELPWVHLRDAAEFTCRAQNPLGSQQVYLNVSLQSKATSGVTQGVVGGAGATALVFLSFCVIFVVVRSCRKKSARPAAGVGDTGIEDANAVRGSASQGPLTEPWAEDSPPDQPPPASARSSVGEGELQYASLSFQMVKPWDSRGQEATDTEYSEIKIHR

Compound | Binding of liposomes with increasing ganglioside content against Siglec-1 CHO cells (Fig. 1c) (WT Siglec-1 CHO cells; 0.0187 Ligand/nm2) | Binding of liposomes with increasing ganglioside content against Siglec-1 CHO cells (Fig. 1c) (WT Siglec-1 CHO cells; 0.0933 Ligand/nm2) | Binding of liposomes with increasing ganglioside content against Siglec-1 CHO cells (Fig. 1c) (WT Siglec-1 CHO cells; 0.187 Ligand/nm2) | Binding of liposomes with increasing ganglioside content against Siglec-1 CHO cells (Fig. 1c) (WT Siglec-1 CHO cells; 0.373 Ligand/nm2) | log10(MFI AF647) of GLL relative to log10(MFI AF647) of the same GLL against UT CHO cells (Fig. 2a) (WT Siglec-1 CHO cells) | ganglioside content threshold above which GLL binding to Siglec-1 CHO cells decreased (WT Siglec-1 CHO cells) | ganglioside ELISA signal, Siglec-1 WT (Siglec-1-Fc WT) | ganglioside ELISA signal, Siglec-6 R (R122A Siglec-6-Fc) | ganglioside ELISA signal, Siglec-6 WT (Siglec-6-Fc WT) | ELISA recognition of adsorbed ganglioside by Siglec-6 (in words) (Siglec-6-Fc WT) | ganglioside ELISA signal, Siglec-7 WT (Siglec-7-Fc WT) | ganglioside ELISA signal, Siglec-7 R (Siglec-7-Fc R124A) | log10(MFI AF647) of GLL relative to log10(MFI AF647) of the same GLL against UT CHO cells (Fig. 2a) (Siglec-9 R120A CHO cells) | other results
CCCCCCCCCCCCCCCCOCC(COCCCCCCCCCCCCCCCC)OCc1cn(CCO[C@@H]2O[C@H](CO)[C@@H](O[C@@H]3O[C@H](CO)[C@H](O)[C@H](O[C@]4(C(=O)O)C[C@H](O)[C@@H](NC(C)=O)[C@H]([C@H](O)[C@H](O)CO)O4)[C@H]3O)[C@H](O)[C@H]2O)nn1 [nGL 5] | – | – | – | – | – | – | – | – | – | – | – | – | – | fold difference in binding to Siglec-6 between 5 and GM3 (Siglec-6-Fc WT; by ELISA): 1.5 fold
GD1a | 0.5 and 0.49 and 0.48 and 0.51 | 0.26 (2×) and 0.28 and 0.3 | 0.19 (3×) and 0.2 | 0.1 (2×) and 0.09 (2×) | 0.86 (2×) and 0.89 and 0.85 | 1–3 mol% | 0.75 and 1.01 and 0.87 | 0.08 and 0.06 and 0.05 | -0.08 and 0.02 and 0.01 and -0.06 | did not recognize | 0.27 and 0.32 and 0.24 and 0.37 | 0.05 and 0 and -0.01 | 0.17 and 0.16 (3×) | Binding of liposomes with increasing ganglioside content against Siglec-1 CHO cells (Fig. 1c) (WT Siglec-1 CHO cells; 0.000187 Ligand/nm2): -0.01; Binding of liposomes with increasing ganglioside content against Siglec-1 CHO cells (Fig. 1c) (WT Siglec-1 CHO cells; 0.00933 Ligand/nm2): 0.01
GD1b | – | – | – | – | 0.7 and 0.71 (2×) and 0.63 | – | 0.52 and 0.66 and 0.64 and 0.62 | 0.07 and 0.09 and 0.06 and 0.08 | -0.04 and 0.01 | – | 0.41 and 0.39 and 0.38 | 0 and -0.01 and -0.02 | 0.12 (2×) and 0.14 (2×) | –
GD3 | – | – | – | – | 0.41 (3×) and 0.45 | – | 0.76 and 0.85 and 0.8 and 0.82 | 0.22 and 0.2 | 0.04 and 0.09 and 0.03 | did not recognize | 0.74 and 0.73 and 0.7 and 0.66 | 0.01 and -0.01 and -0.02 | 0.21 and 0.15 (2×) and 0.19 | –
GM1 | 0.02 | 0.26 and 0.25 and 0.27 and 0.28 | 0.19 and 0.18 (2×) and 0.16 | 0.08 (3×) and 0.07 | 0.34 and 0.29 and 0.27 and 0.31 | 1–3 mol% | 0.39 and 0.55 and 0.5 and 0.54 | 0.02 and 0.03 | -0.03 and -0.04 and -0.05 and -0.02 | did not recognize | 0.04 and 0.05 and 0.01 and 0.03 | 0 and -0.01 and 0.03 | 0.14 and 0.1 (2×) and 0.16 | Binding of liposomes with increasing ganglioside content against Siglec-1 CHO cells (Fig. 1c) (WT Siglec-1 CHO cells; 0.0373 Ligand/nm2): 0.13 (2×) and 0.12 (2×); Binding of liposomes with increasing ganglioside content against Siglec-1 CHO cells (Fig. 1c) (WT Siglec-1 CHO cells; 0.056 Ligand/nm2): 0.26 and 0.28 and 0.27 (2×); Liposome binding to Siglec-1-expressing CHO cells in the cell assay (Fig. 1f) (WT Siglec-1 CHO cells; 3% glycolipid in liposome): 926 and 882 and 896; GM1 liposome binding to Siglec-1 CHO cells, flow cytometry (Fig. 1b) (WT Siglec-1 CHO cells; 0.2 mol% PEG45–DSPE): 1640 and 1691 and 1719 and 1798; GM1 liposome binding to Siglec-1 CHO cells, flow cytometry (Fig. 1b) (WT Siglec-1 CHO cells; 0.5 mol% PEG45–DSPE): 1529 and 1675 and 1687 and 1576 and 1551; GM1 liposome binding to Siglec-1 CHO cells, flow cytometry (Fig. 1b) (WT Siglec-1 CHO cells; 1 mol% PEG45–DSPE): 687 and 675 and 684 and 712 and 741; GM1 liposome binding to Siglec-1 CHO cells, flow cytometry (Fig. 1b) (WT Siglec-1 CHO cells; 2 mol% PEG45–DSPE): 106 and 105 and 107 and 111 and 113; GM1 liposome binding to Siglec-1 CHO cells, flow cytometry (Fig. 1b) (WT Siglec-1 CHO cells; 5 mol% PEG45–DSPE): 79 and 80 and 82 and 81; Liposome binding to Siglec-1-expressing CHO cells in the cell assay (Fig. 1f) (WT Siglec-1 CHO cells; 20% glycolipid in liposome): 316 and 299 and 296; binding to WT Siglec-1 CHO cells (in words) (WT Siglec-1 CHO cells; cell assay): No differences in binding
